≈ marks a conversion by molar mass, not a printed value.
Experiments:
Format in all cases: cell-based
S. aureus 0012 = assay: MIC by standard dilution method (NCCLS 1990), S. aureus 0012 (methicillin-resistant clinical isolate); conditions: Staphylococcus aureus; S. aureus 0012, clinical isolate of methicillin-resistant strain; 35° C., 24 h incubation
Procedure: (§1) To determine minimum inhibitory concentration (MIC) of the xenomins, the standard dilution method was used as outlined by The National Committee for Clinical Laboratory Standards (1990) for testing antibiotics. The tests were coducted at 35° C. and the MICs were determined after 24 h incubation.
(§2) *clinical isolates of methicillinresistant strain.

cervical cancer Hela = assay: Antineoplastic activity in vitro, method of Skehan et al. (1990), Hela; conditions: Homo sapiens, Hela cells
Procedure: (§3) The antineoplastic activities of xenomins have been determined in vitro in cell cultures of human colon cancer HT-29, breast cancer MCF-7 and cervical cancer Hela. The tests were carried out using the method described by Skehan et al. (1990).

human colon cancer HT-29 = assay: Antineoplastic activity in vitro, method of Skehan et al. (1990), HT-29; conditions: HT29 cells
Procedure: as §3

Bacillus subtilis = assay: MIC by standard dilution method (NCCLS 1990), Bacillus subtilis; conditions: 35° C., 24 h incubation
Procedure: as §1

[1] = tested on: Cryptococcus neoformans ATCC14117; assay: MIC by standard dilution method (NCCLS 1990), Cryptococcus neoformans ATCC14117; conditions: 35° C., 24 h incubation
Procedure: as §1

S. aureus 0017 = assay: MIC by standard dilution method (NCCLS 1990), S. aureus 0017 (methicillin-resistant clinical isolate); conditions: Staphylococcus aureus; S. aureus 0017, clinical isolate of methicillin-resistant strain; 35° C., 24 h incubation
Procedure: as §1, §2

[2] = tested on: Staphylococcus aureus ATCC 29213; assay: MIC by standard dilution method (NCCLS 1990), Staphylococcus aureus ATCC 29213; conditions: ATCC29213, 35° C., 24 h incubation
Procedure: as §1

breast cancer MCF-7 = assay: Antineoplastic activity in vitro, method of Skehan et al. (1990), MCF-7; conditions: Homo sapiens, MCF7, MCF-7 cells
Procedure: as §3

[3] = tested on: Candida tropicalis CBS 94; assay: MIC by standard dilution method (NCCLS 1990), Candida tropicalis CBS 94; conditions: CBS94, 35° C., 24 h incubation
Procedure: as §1

Compound	MIC (S. aureus 0012) [mg/L]	IC50 (cervical cancer Hela) [mg/L]	IC50 (human colon cancer HT-29) [mg/L]	MIC (Bacillus subtilis) [mg/L]	MIC [1] [mg/L]	MIC (S. aureus 0017) [mg/L]	MIC [2] [mg/L]	IC50 (breast cancer MCF-7) [mg/L]	MIC [3] [mg/L]
CCCCCC(=O)Nc1c2[s+]([O-])scc-2n(C)c1=O (single isomer, unassigned) [Xenomin 1]	10 (≈ 33.3 µM)	0.24 (≈ 0.799 µM)	0.14 (≈ 0.466 µM)	5 (≈ 16.6 µM)	13 (≈ 43.3 µM)	10 (≈ 33.3 µM)	20 (≈ 66.6 µM)	1.37 (≈ 4.56 µM)	100 (≈ 333 µM)
CC(C)CCCC(=O)Nc1c2[s+]([O-])scc-2n(C)c1=O (single isomer, unassigned) [Xenomin 2]	41 (≈ 130 µM)	0.65 (≈ 2.07 µM)	0.34 (≈ 1.08 µM)	41 (≈ 130 µM)	25 (≈ 79.5 µM)	41 (≈ 130 µM)	41 (≈ 130 µM)	1.74 (≈ 5.53 µM)	> 100
